Patent US11186587B2, “Compound as ACC inhibitor and use thereof” (NANJING SANHOME PHARMACEUTICAL CO., LTD., priority 2017, dated 2021)

What was measured:
[1] = tested on: HFD-CCL4 induced NASH model; assay: Drug efficacy on NASH and liver fibrosis induced by HFD-CCL4; type: in vivo; conditions: C57BL/6 mice, HFD 10 weeks + CCL4 4 weeks; intragastric once a day for 4 weeks; Example 25 10 mg/kg/d, ND-630 30 mg/kg/d; H&E staining
Description: High-fat diet (HFD) was used to induce liver steatosis in animals, and then carbon tetrachloride (CCL4) was used to induce liver inflammation, necrosis, and liver fibrosis. This model was similar to the human NASH disease process and pathological phenomenon. The purpose of this experiment was to evaluate the efficacy of the compound of the disclosure in a NASH model of C57BL/6 mice induced by HFD-CCL4, with ND-630 as a control compound. HFD-CCL4 inducement was performed for 10 weeks and drug intervention was performed for 4 weeks. The therapeutic effects of the drug on NASH and liver fibrosis were observed.
The test compounds in the examples of the present disclosure and ND-630 were diluted to 0.3 mg/mL, 1 mg/mL, 3 mg/mL with PEG200:0.2M Na2HPO4-NaH2PO4 buffer (35:65), which was prepared just before use.
HFD-CCL4 induced NASH model in C57BL/6 mice: the animals were first housed in the SPF barrier of the KCI Experimental Animal Center for 3-7 days, and then the animals were changed to HFD feeding in a cycle of 10 weeks. […]
The left liver lobe sample was fixed with 10% formalin and embedded in paraffin to prepare 5 μm sections for haematoxylin-eosin (H&E) staining. Hematoxylin-eosin staining can detect tissue inflammation, fat deposition, vacuolar degeneration and tissue fibrosis, giving semi-quantitative analysis for the lesion.
The data were expressed as mean±standard error. […]

[2] = tested on: Col1A1 gene expression in TGF-β1-induced LX-2 cells; assay: Inhibition of human hepatic stellate cells LX-2 activation in vitro (Col1A1 gene expression, real-time PCR); type: cell-based; conditions: TGFβ1 10 ng/mL, 24 h drug treatment, compound concentration of the tabulated value not stated (30, 10, 3 μM prepared)
Description: The compounds of the present disclosure prepared in the above examples and the control compound were respectively formulated into 60 mM with DMSO for use.
DMSO stock solution of the compounds of the examples of the present disclosure and the control compound were sequentially diluted with culture medium to 30 μM, 10 μM, and 3 μM. TGF-β1 was dissolved to […] with 10 mM citric acid buffer in the kit (PeproTech) according to the instructions, ready for use.
LX-2 cells were inoculated into a 6-well culture plate at a density of 2×10^5 cells/mL after cell passage. Each well contained 2 mL DMEM with 10% FBS. The cells were cultured at 37° C. in a 5% CO2 incubator, which was recorded as Day 1. After 24 h (Day 2), the cell confluence reached 70-80%, the old culture medium was discarded, and the serum-free DMEM was used to treat the cells as low serum starvation. The old culture medium was discarded at Day 3, and the culture medium or the culture medium containing different concentrations of the drug was added for continuing culture. There were control group (serum-free DMEM culture medium), TGFβ1 group, TGFβ1+ compound group. The TGFβ1 working concentration was 10 ng/mL. 24 h after the drug treatment (Day 4), the cell medium was discarded and the cells were washed once with precooled 1×PBS and then subjected to total RNA extraction.
2.3.1 Sample pretreatment: 1 mL of TransZOL Up reagent was added to each well of the 6-well plate, and the well plate was placed horizontally for a while to let the lysis buffer evenly spread on the cell surface and lyse the cells. The cells were blown with a pipette to make the cells completely detached. The lysate was transferred to a 2 mL RNase free centrifuge tube and repeatedly blown and sucked until no significant pieces in the lysate.
The extracted RNA was diluted to a concentration of 0.1 μg-0.5 μg (Total RNA ≤1 μg) based on the same mass. The total RNA in the reverse transcription system of each sample in the experiment was about 500 ng.
Two replicates were set for each sample, and the relative expression of the target gene was calculated by the program in the PCR machine.
The threshold of the Real Time PCR result was automatically set by the Real Time PCR detector system. The relative expression of the Col1A1 gene was calculated as follows. ΔCt (Col1A1 in drug treatment group)=Avg. Ct (Col1A1 in drug treatment group)−Avg. Ct (GAPDH in drug treatment group) ΔCt (Col1A1 in TGF group)=Avg. Ct (Col1A1 in TGF group)−Avg. Ct (GAPDH in TGF group) ΔCt (Col1A1 in Control group)=Avg. Ct (Col1A1 in Control group)−Avg. Ct (GAPDH in Control group) ΔΔCt=Average value of ΔCt (Col1A1 in TGF group/drug treatment group)−ΔCt (Col1A1 in Control group)
Formula for calculating the relative expression of Col1A1 gene: RQ=^2−ΔΔCt
Relative quantification results were obtained by automatically analysis of ABI 7500 real-time quantitative PCR machine.

**Q.** Which “Hepatic steatosis score (Mean ± SD)” value [1] does the source give for `COc1ccccc1[C@H](Cn1c(=O)n(C(C)(C)C(=O)O)c(=O)c2c(C)c(-c3ncco3)sc21)OC1CCOCC1` [ND-630, 2-[1-[2-(2-methoxyphenyl)-2-(oxecyclo-4-yloxy)ethyl]-5-methyl-6-(1,3-oxazol-2-yl)-2,4-dioxo-1H,2H,3H,4H-thieno[2,3-d]pyrimidin-3-yl]-2-methylpropanoic acid, reference compound] here?
**A.** 0.13 ± 0.32

**Q.** What about the “Hepatocyte necrosis score (Mean ± SD)” value [1] of the same molecule?
**A.** 1.00 ± 0.61

**Q.** And the “Inhibition rate (%) of relative expression of the Col1A1 gene” value [2]?
**A.** 42.06%
